Data on 48 molecules can be found in ChEMBL document CHEMBL1149220, “1-(2-Naphthyl)-1H-pyrazole-5-carboxylamides as potent factor Xa inhibitors. Part 2: A survey of P4 motifs” (Bioorg Med Chem Lett, 2004).

A word on the IC50: it is the concentration at which inhibition is half-maximal. A low value points to higher potency. Usually Ki stands for a measure of affinity in units of concentration, obtained from inhibition or displacement. The low end stands for tighter binding, the high end for weaker binding.

Structures are written as SMILES.

Assay [1] has as its target T1, Coagulation factor X (Homo sapiens, UniProt P00742). The assay can be described thus: Inhibitory concentration against human Coagulation factor X.
For assay [2], the target named is T1, Coagulation factor X. The assay is described as follows: In vitro anticoagulant potency measured in human plasma by thrombin generation (TG) assay expressed as 2 x TG. The class given is functional, cell-free.
In assay [3] the target is T1, Coagulation factor X. The assay can be described thus: Binding affinity against Coagulation factor X.

T1 sequence (P00742 41-179 limits assumed): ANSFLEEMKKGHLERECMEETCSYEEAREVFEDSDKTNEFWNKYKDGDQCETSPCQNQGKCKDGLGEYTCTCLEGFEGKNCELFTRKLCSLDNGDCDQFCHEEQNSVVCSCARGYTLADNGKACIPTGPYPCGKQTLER
T1 sequence (P00742 235-488 limits assumed): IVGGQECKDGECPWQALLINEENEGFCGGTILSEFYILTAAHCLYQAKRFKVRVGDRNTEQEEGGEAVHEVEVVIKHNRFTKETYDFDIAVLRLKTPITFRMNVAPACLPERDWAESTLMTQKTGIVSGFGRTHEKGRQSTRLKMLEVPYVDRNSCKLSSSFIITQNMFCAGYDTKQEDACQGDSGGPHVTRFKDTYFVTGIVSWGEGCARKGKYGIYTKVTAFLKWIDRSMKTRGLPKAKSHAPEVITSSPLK

As for `Cc1cc(C(=O)Nc2ccc(-n3ccnc3CN(C)C)cc2)n(-c2ccc3cc(Cl)ccc3c2)n1`, in assay [1], the midpoint of inhibition, the IC50, lay at 8 nM. For the same molecule, in assay [2], the Activity is greater than 5 µM. For the same molecule, the inhibition constant (Ki) in assay [3] is 2.8 nM.

Consider `Cc1cc(C(=O)Nc2ccc(-c3ccccn3)cc2F)n(-c2ccc3cc(Cl)ccc3c2)n1`, for which the IC50 in assay [1] turned out to be 94 nM.

In assay [1], `Cc1cc(C(=O)Nc2ccc(-c3ccccc3CN(C)C)cc2)n(-c2ccc3cc(Cl)ccc3c2)n1` came in with a half-inhibitory concentration (IC50) of 5 nM. Also, the Activity in assay [2] worked out at 2 µM. The affinity in assay [3] corresponds to a Ki of 1.8 nM.

Regarding `Cc1cc(C(=O)Nc2ccc(-c3ccccc3S(N)(=O)=O)cn2)n(-c2cc3ccccc3cc2S(C)(=O)=O)n1`, the concentration for half-maximal inhibition (IC50) in assay [1] was 46 nM.

As for `Cc1cc(C(=O)Nc2ccc(N3CCOCC3=O)cc2F)n(-c2cc3ccccc3cc2F)n1`, in assay [1], the half-inhibitory concentration (IC50) worked out at 2 nM. The molecule further gave an Activity in assay [2] greater than 5 µM. Moreover, the inhibition constant (Ki) in assay [3] stood at 0.5 nM.

`Cc1cc(C(=O)Nc2ccc(-c3ccccc3S(C)(=O)=O)cc2F)n(-c2ccc3cc(Cl)ccc3c2)n1` returned an IC50 in assay [1] of 6 nM. The Activity in assay [2] was greater than 5 µM. The inhibition constant (Ki) in assay [3] is 1.8 nM.

For the molecule `Cc1cc(C(=O)Nc2ccc(-c3ccccc3S(N)(=O)=O)cn2)n(-c2cc3ccccc3cc2F)n1`, the concentration for half-maximal inhibition (IC50) in assay [1] stood at 81 nM.

As for `Cc1cc(C(=O)Nc2ccc(N3CCN(C)CC3)cc2)n(-c2ccc3cc(Cl)ccc3c2)n1`, the concentration for half-maximal inhibition (IC50) in assay [1] came to 166 nM.

Molecule `Cc1cc(C(=O)Nc2ccc(-c3ccccc3S(C)(=O)=O)cc2F)n(-c2cc3ccccc3cc2F)n1` yielded an IC50 in assay [1] of 14 nM. This IC50 lies about 12-fold lower than the previous one.

Take `Cc1cc(C(=O)Nc2ccc(-n3cccn3)cc2)n(-c2ccc3cc(Cl)ccc3c2)n1`: 215 nM corresponded to half-maximal inhibition in assay [1] (IC50).

In assay [1], `Cc1cc(C(=O)Nc2ccc(-c3ccccc3C(=N)N(C)C)cc2)n(-c2ccc3cc(Cl)ccc3c2)n1` displayed a half-maximal inhibitory concentration (IC50) of 26 nM. This IC50 lies about 8.3-fold lower than the previous one.

In the case of `Cc1cc(C(=O)Nc2ccc(N3CCCCC3)cc2)n(-c2ccc3cc(Cl)ccc3c2)n1`, in assay [1], the concentration for half-maximal inhibition (IC50) came out at 131 nM.

On to `Cc1cc(C(=O)Nc2ccc(-c3ccccc3CN)cc2)n(-c2ccc3cc(Cl)ccc3c2)n1`, for which the IC50 in assay [1] stood at 39 nM.

Regarding `Cc1cc(C(=O)Nc2ccc(C(=O)N3CCCC3)cc2)n(-c2ccc3cc(Cl)ccc3c2)n1`, it took 6 nM to reach half-maximal inhibition in assay [1] (IC50). Further, the Activity in assay [2] is greater than 5 µM. The Ki in assay [3] stood at 1.8 nM.

`Cc1cc(C(=O)Nc2ccc(-c3cccc(CN)c3)cc2)n(-c2ccc3cc(Cl)ccc3c2)n1`: in assay [1], the IC50 is 70 nM.

For the molecule `Cc1cc(C(=O)Nc2ccc(N3CCCCCC3=O)cc2F)n(-c2cc3ccccc3cc2S(C)(=O)=O)n1`, in assay [1], the IC50 came to 47 nM.

As to `Cc1cc(C(=O)Nc2ccc(-c3ccccc3S(N)(=O)=O)cc2F)n(-c2cc3ccccc3cc2S(C)(=O)=O)n1`, the concentration for half-maximal inhibition (IC50) in assay [1] is 5 nM. The molecule further gave an Activity in assay [2] of 4.5 µM. In assay [3], the affinity, expressed as Ki, was 1.1 nM.

In assay [1], `Cc1cc(C(=O)Nc2ccc(N3CCCCC3=O)cc2F)n(-c2cc3ccccc3cc2S(C)(=O)=O)n1` returned an IC50 of 27 nM.

Molecule `Cc1cc(C(=O)Nc2ccc(N3CCNCC3=O)cc2F)n(-c2cc3ccccc3cc2S(C)(=O)=O)n1` gave a 50% inhibitory concentration (IC50) in assay [1] of 41 nM.

In assay [1], `Cc1cc(C(=O)Nc2ccc(N3CCOCC3=O)cc2F)n(-c2ccc3cc(Cl)ccc3c2)n1` showed a half-maximal inhibitory concentration (IC50) of 1 nM. In assay [2], this molecule displayed an Activity of 5 µM. The molecule further registered a Ki in assay [3] of 0.5 nM.

On to `Cc1cc(C(=O)Nc2ccc(-n3ccnn3)cc2)n(-c2ccc3cc(Cl)ccc3c2)n1`, for which the IC50 in assay [1] worked out at 112 nM.

`Cc1cc(C(=O)Nc2ccc(-n3ccnc3CN)cc2F)n(-c2cc3ccccc3cc2F)n1` showed an IC50 in assay [1] of 13 nM.

Turning to `Cc1cc(C(=O)Nc2ncc(-c3ccccc3S(N)(=O)=O)cn2)n(-c2cc3ccccc3cc2F)n1`, in assay [1], the 50% inhibitory concentration (IC50) came out at 39 nM.

Consider `Cc1cc(C(=O)Nc2ccc(C(=O)N3CCCCC3)cc2)n(-c2ccc3cc(Cl)ccc3c2)n1`, for which the IC50 in assay [1] was 66 nM.

Consider `Cc1cc(C(=O)Nc2ccc(N3CCOCCC3=O)cc2F)n(-c2cc3ccccc3cc2S(C)(=O)=O)n1`, for which the midpoint of inhibition in assay [1], the IC50, lay at 23 nM. Compared with the last molecule, the IC50 is about 2.9-fold lower.

Turning to `Cc1cc(C(=O)Nc2ccc(N3CCOCC3=O)cc2)n(-c2ccc3cc(Cl)ccc3c2)n1`, it took 1 nM to reach half-maximal inhibition in assay [1] (IC50). Besides, the Activity in assay [2] came to 3 µM. In assay [3], this molecule yielded a Ki of 0.3 nM.

`Cc1cc(C(=O)Nc2ccc(-c3cccc(C(=N)N(C)C)c3)cc2)n(-c2ccc3cc(Cl)ccc3c2)n1` showed an IC50 in assay [1] of 380 nM. This lies in the sub-micromolar range.

In turn, `Cc1cc(C(=O)Nc2ccc(C(=O)N(C)C)cc2)n(-c2ccc3cc(Cl)ccc3c2)n1` displayed an IC50 in assay [1] of 13 nM. The Activity in assay [2] is greater than 5 µM.

`Cc1cc(C(=O)Nc2ccc(-n3nccn3)cc2)n(-c2ccc3cc(Cl)ccc3c2)n1` gave an IC50 in assay [1] of 2100 nM.

Regarding `Cc1cc(C(=O)Nc2ccc(N3CCNCCC3=O)cc2)n(-c2ccc3cc(Cl)ccc3c2)n1`, it took 130 nM to reach half-maximal inhibition in assay [1] (IC50).

In the case of `Cc1cc(C(=O)Nc2ccc(-c3ccccc3S(N)(=O)=O)cc2)n(-c2ccc3cc(Cl)ccc3c2)n1`, the Activity in assay [2] is greater than 5 µM.

As to `Cc1cc(C(=O)Nc2ccc(-n3ccnc3C)cc2F)n(-c2ccc3cc(Cl)ccc3c2)n1`, the midpoint of inhibition in assay [1], the IC50, lay at 15 nM.

For `Cc1cc(C(=O)Nc2ccc(N3CCOCC3)cc2)n(-c2ccc3cc(Cl)ccc3c2)n1`, the midpoint of inhibition in assay [1], the IC50, lay at 88 nM. Compared with the last molecule, the IC50 is about 5.9-fold higher.

In the case of `Cc1cc(C(=O)Nc2ccc(N3CCCNCC3)cc2)n(-c2ccc3cc(Cl)ccc3c2)n1`, inhibition in assay [1] was half-maximal at 36 nM (IC50).

As to `Cc1cc(C(=O)Nc2ccc(-c3ccccc3S(C)(=O)=O)cc2)n(-c2ccc3cc(Cl)ccc3c2)n1`, in assay [2], the Activity is greater than 5 µM. The molecule further returned an inhibition constant Ki in assay [3] of 1.4 nM.

In turn, `Cc1cc(C(=O)Nc2ccc(N3CCCN(C)CC3)cc2)n(-c2ccc3cc(Cl)ccc3c2)n1` yielded a 50% inhibitory concentration (IC50) in assay [1] of 22 nM. In assay [2], this molecule came in with an Activity of 5 µM.

For `Cc1cc(C(=O)Nc2ccc(-n3ccnc3CN(C)C)cc2F)n(-c2cc3ccccc3cc2S(C)(=O)=O)n1`, it took 8 nM to reach half-maximal inhibition in assay [1] (IC50). Also, in assay [2], the Activity stood at 1.7 µM. The affinity in assay [3], expressed as Ki, was 3.2 nM.

In assay [1], `Cc1cc(C(=O)Nc2ccc(N3CCCC3=O)cc2F)n(-c2cc3ccccc3cc2S(C)(=O)=O)n1` registered an IC50 of 58 nM.

Take `Cc1cc(C(=O)Nc2ccc(-c3ccncc3)cc2F)n(-c2ccc3cc(Cl)ccc3c2)n1`: in assay [1], inhibition was half-maximal at 40 nM (IC50).

Molecule `Cc1cc(C(=O)Nc2ncc(-c3ccccc3S(N)(=O)=O)cn2)n(-c2ccc3cc(Cl)ccc3c2)n1` showed a half-maximal inhibitory concentration (IC50) in assay [1] of 7 nM. Besides, in assay [2], the Activity worked out at 2 µM. This molecule also yielded an inhibition constant Ki in assay [3] of 2.5 nM.

In the case of `Cc1cc(C(=O)Nc2ccc(-c3cccc(C(=N)N)c3)cc2)n(-c2ccc3cc(Cl)ccc3c2)n1`, the IC50 in assay [1] amounted to 75 nM.

With `Cc1cc(C(=O)Nc2ccc(-c3ccccc3S(N)(=O)=O)cc2F)n(-c2ccc3cc(Cl)ccc3c2)n1`, it took 3 nM to reach half-maximal inhibition in assay [1] (IC50). Also, the Activity in assay [2] was greater than 5 µM. In addition, in assay [3], the Ki is 3.4 nM.

For the molecule `Cc1cc(C(=O)Nc2ccc(N3CCNCCC3=O)cc2F)n(-c2cc3ccccc3cc2S(C)(=O)=O)n1`, in assay [1], 680 nM corresponded to half-maximal inhibition (IC50). In other words, the sub-micromolar range.

`Cc1cc(C(=O)Nc2ccc(-n3ccnc3)cc2)n(-c2ccc3cc(Cl)ccc3c2)n1` displayed an IC50 in assay [1] of 108 nM. This IC50 lies about 6.3-fold lower than the previous one.

For the molecule `Cc1cc(C(=O)Nc2ccc(-c3ccccc3S(N)(=O)=O)cn2)n(-c2ccc3cc(Cl)ccc3c2)n1`, in assay [1], the concentration for half-maximal inhibition (IC50) was 5 nM. For the same molecule, in assay [2], the Activity was 2 µM. This molecule also displayed an inhibitory constant (Ki) in assay [3] of 1.9 nM.

`Cc1cc(C(=O)Nc2ccc(-n3ccnc3CN(C)C)cc2F)n(-c2ccc3cc(Cl)ccc3c2)n1` registered an Activity in assay [2] of 3 µM.

In assay [1], `Cc1cc(C(=O)Nc2ccc(-c3ccccc3S(N)(=O)=O)cc2F)n(-c2cc3ccccc3cc2F)n1` showed an IC50 of 29 nM. This counts as double-digit nanomolar.

Molecule `Cc1cc(C(=O)Nc2ccc(-c3cccnc3)cc2F)n(-c2ccc3cc(Cl)ccc3c2)n1` gave an IC50 in assay [1] of 92 nM. This IC50 is about 3.2-fold higher than that of the molecule before.
